# Ends that are not written are not given here.
# Legend:
# HLA-A2 = target: T1, HLA-A2 (Homo sapiens, UniProt P04439, D140Y/D185E/D98H/E176V/E277Q/G131W/G231S/I119V/I121R/I166T/I218V/L300P/L318F/N151K/N90K/P208A/P217A/Q86G/Q94H/R138H/R169H/T345S); test: Assembly assay for peptide binding to class I MHC molecules; settings: concentration of the peptide required for half maximal binding to HLA-A2; for EC50: read-out: C50
# T1 construct: stabilization of the class 1 molecule after loading of peptide to the peptide transporter deficient cell line T2; endogenous in cells; host or cells: T2 (TAP-deficient human cell line), metabolically labelled with [35S]-methionine and lysed
# Description: Assembly assays for binding of the synthetic peptides to class I MHC molecules metabolically labeled with [^35S]-methionine can be carried out as described below. It will be appreciated by the person skilled in the art that the protocol may be adopted for any peptide and any class I MHC molecule.
# Briefly, TAP deficient cells were metabolically labeled with [^35S]-methionine (Amersham, Freiburg, Germany). The cells were lyzed in 0.5 ml lysis buffer (150 mM NaCl, 50 mM TrisHCl, 0.5% NP-40 (Fluka, Buchs, Switzerland), 5 mM EDTA, pH 7.5) with 0.5% Mega-9 (Sigma, St. Louis, USA) in the presence of protease inhibitors (2 mM PMSF, 5 mM iodoacetamide, 2 μg/ml pepstatin, 2 μg/ml leupeptin) with or without synthetic peptide (for a list of positive control peptides, see Table 2).
# After 20 min of incubation, the cell nuclei were removed by centrifugation (5 min, 10,000 g) and 50 μl (10% v/v) freshly washed Staphylococcus aureus organisms (Pansorbin, Calbiochem, Nottingham, UK). The next day Pansorbin was removed by centrifugation (12 min, 16,000 g) and the appropriate monoclonal antibody was added at a final concentration of 10 μg/ml, incubated for 90 min, followed by addition of protein A-Sepharose (75 μl, 10% v/v) and incubation for 1 h. The beads were washed 4 times and stored at −20° C. until analysis by electrophoresis.
# In the case of an assembly assay with the HLA class I-specific conformation-dependent monoclonal antibody W6/32, samples were eluted in reducing buffer (9.5 M urea, 2% NP-40, 5% 2-mercaptoethanol, 2% Ampholines, pH range 3.5-9.5 (Pharmacia Biotech, Uppsala, Sweden)) and focused for 16 h at 880 V on 5.5% polyacrylamide isoelectric focusing (IEF) gels^20,39.
# Samples from assembly assays with allele-specific antibodies were eluted by boiling (5 min) in SDS reducing buffer (50 mM TrisHCl pH 6.8, 2% SDS, 5% 2-mercaptoethanol, 10% glycerol, 2.5% bromophenol blue) and electrophorezed on 12% SDS-PAGE gels (1 h at 200 V). All gels were fixed in 10% acetic acid with 5% methanol and dried onto 3 MM paper (Whatman, Maidstone, UK). MHC heavy chain bands were quantified using the Imagequant Phosphorimager program (Molecular Dynamics, Sunnyvale, Calif., USA). The intensity of the band is directly related to the amount of peptide-bound class I MHC complex recovered during the assay. C50 value (μM) as the concentration of the peptide required for half maximal binding to MHC may thus be determined. The binding affinities of the analysed peptides are determined according to their efficiency of stabilising the HLA class I molecules. The binding affinity is represented as the peptide concentration required to reach half-maximal stabilistation of appropriate HLA-molecule.
# Assembly assays for binding of the synthetic peptides to class I MHC molecules metabolically labeled with [^35S]-methionine were carried out as described^15,16. The assembly assay is based on stabilization of the class 1 molecule after loading of peptide to the peptide transporter deficient cell line T2. Subsequently correctly folded stable MHC heavy chains are immunoprecipitated using conformation-dependent antibodies. After IEF electrophoresis, gels were exposed to phosphorImager screens, and peptide binding was quantitated using the Imagequant PhosphorImager program (Molecular Dynamics, Sunnyvale, Calif.).
# [1] = tested on: peripheral blood T cells or TIL from melanoma patients; test: ELISPOT IFN-γ secretion assay, T-cell responses against HLA-A2 binding ML-IAP peptides; type: cell-based, human; settings: for strength of spontaneous CTL response: TIL and PBL from melanoma patients, in words; for TIL samples in which a response against the peptide was detected: TIL from melanoma patients (n=22); for TIL samples in which a response against the peptide was detected / PBL samples in which a response against the peptide was detected: stimulated once in vitro with peptide, number of samples; for PBL samples in which a response against the peptide was detected: peripheral blood T cells from melanoma patients (n=7)
# Description: Peripheral blood was obtained from melanoma patients before vaccination and subsequent to a series of vaccinations. In order to identify peptide-specific T-cell precursors, peripheral blood lymphocytes (PBL) were used directly in the ELISPOT (designated direct ELISPOT). However, to extend the sensitivity of the ELISPOT assay, PBL were stimulated once in vitro prior to analysis^17,18. At day 0, PBL or crushed lymph nodes were thawed and plated in 2 ml/well at a concentration of 2×10^6 cells in 24-well plates (Nunc, Denmark) in X-vivo medium (Bio Whittaker, Walkersville, Md.), 5% heat-inactivated human serum, and 2 mM of L-glutamine in the presence of 10 μM of peptide. Two days later 20 IU/ml recombinant interleukin-2 (IL-2) (Chiron, Ratingen, Germany) was added to the cultures. The cultured cells were tested for reactivity in the ELISPOT on day 8.
# The ELISPOT assay used to quantify peptide epitope specific interferon-7 releasing effector cells was adapted from Lalvani et al.^37, and Scheibenbogen et al.^38. Briefly, nitrocellulose bottomed 96-well plates (MultiScreen MAIP N45, Millipore) were coated overnight at 4° C. with 7.5 μg/ml of anti-IFN-γ antibody (1-D1K, Mabtech, Sweden) in 75 μl sterile PBS. Subsequently, the wells were washed six times with PBS, and non-specific binding were blocked by X-vivo medium for 2 hours at 37° C. Freshly isolated PBL or cells, which had been stimulated once in vitro, were added in duplicates at different cell concentrations (from 10^6 to 10^5 cells per well for non-stimulated PBL, and from 3×10^5-3×10^4 cells per well for PBL which had been stimulated once in vitro), in 100 μl X-vivo medium. Peptides were then added to each well to a final concentration of 2 μM and incubated overnight at 37° C.
# The following day, media was discarded and the wells were washed (six times) with PBS containing 0.05% Tween (PBS/Tw) before the addition of biotinylated secondary antibody (7-B6-1-Biotin, Mabtech) at 0.5 μg/ml in 75 μl PBS containing 1% BSA and 0.02% NaN3 (PBS/BSA). The plates were incubated at room temperature for 2 hours. The wells were washed (six times) with PBS/Tw. Then 75 μl of Avidin-enzyme conjugate (AP-Avidin, Calbiochem) diluted 1:2000 in PBS/BSA were added to each well and incubated for 1 hour. The enzyme substrate NBT/BCIP was prepared freshly according to the manufacturers' instructions (Gibco, code 18280-016) and 75 μl were added to each well and incubated for 5-10 min. The reaction was terminated by washing with tap-water upon the emergence of dark purple spots. The spots were then counted using the AlphaImager System (Alpha Innotech, San Leandro, Calif., USA) and the peptide specific CTL frequency could be calculated as the number of spot-forming cells.
# To extend the sensitivity of the ELISPOT assay, PBL were stimulated once in vitro prior to analysis^17,18. At day 0, PBL or crushed lymph nodes were thawed and plated in 2 ml/well at a concentration of 2×10^6 cells in 24-well plates (Nunc, Denmark) in X-vivo medium (Bio Whittaker, Walkersville, Md.), 5% heat-inactivated human serum, and 2 mM of L-glutamine in the presence of 10 μM of peptide. Two days later 20 IU/ml recombinant interleukin-2 (IL-2) (Chiron, Ratingen, Germany) was added to the cultures. The cultured cells were tested for reactivity in the ELISPOT on day 12.
# The ELISPOT assay used to quantify peptide epitope-specific interferon-γ-releasing effector cells was performed as described previously^19. Briefly, nitrocellulose bottomed 96-well plates (MultiScreen MAIP N45, Millipore, Hedehusene, Denmark) were coated with anti-IFN-7 antibody (1-D1K, Mabtech, Nacka, Sweden). The wells were washed, blocked by X-vivo medium, and cells were added in duplicates at different cell concentrations. Peptides were then added to each well and the plates were incubated overnight. The following day, media was discarded and the wells were washed prior to addition of biotinylated secondary antibody (7-B6-1-Biotin, Mabtech). […]
EC50 (HLA-A2),Compound,further results
1 µM,CC[C@H](C)[C@H](NC(=O)[C@@H](N)CCC(N)=O)C(=O)N[C@@H](CC(C)C)C(=O)NCC(=O)N[C@@H](CCC(N)=O)C(=O)N[C@@H](CC(C)C)C(=O)N[C@@H](CCCNC(=N)N)C(=O)N1CCC[C@H]1C(=O)N[C@@H](CC(C)C)C(=O)O [ML-IAP54],–
> 100 µM,CC(C)C[C@H](NC(=O)[C@H](CCC(=O)O)NC(=O)[C@@H]1CCCN1C(=O)[C@@H]1CCCN1C(=O)[C@@H](NC(=O)[C@H](CCC(=O)O)NC(=O)[C@H](C)NC(=O)[C@@H](NC(=O)[C@H](CC(C)C)NC(=O)[C@@H]1CCCN1)[C@@H](C)O)C(C)C)C(=O)O [ML-IAP98],–
10 µM,CC(C)C[C@H](NC(=O)[C@@H](N)CC(C)C)C(=O)N[C@@H](CCCNC(=N)N)C(=O)N[C@@H](CO)C(=O)N[C@@H](CCCCN)C(=O)NCC(=O)N[C@@H](CCCNC(=N)N)C(=O)N[C@@H](CC(=O)O)C(=O)N[C@@H](Cc1ccccc1)C(=O)N[C@H](C(=O)O)C(C)C [ML-IAP154],–
20 µM,CC[C@H](C)[C@H](NC(=O)[C@@H]1CCCN1C(=O)[C@H](CS)NC(=O)[C@H](CC(C)C)NC(=O)[C@@H](N)CCC(N)=O)C(=O)N[C@@H](CS)C(=O)N[C@@H](CCCNC(=N)N)C(=O)N[C@@H](C)C(=O)N1CCC[C@H]1C(=O)N[C@H](C(=O)O)C(C)C [ML-IAP280],–

# Continued, compound first:
Compound,EC50 (HLA-A2),further results
CC(C)C[C@H](NC(=O)CNC(=O)[C@H](CC(C)C)NC(=O)[C@@H](NC(=O)[C@@H]1CCCN1C(=O)[C@H](CO)NC(=O)CNC(=O)[C@H](CC(C)C)NC(=O)[C@@H](N)CO)C(C)C)C(=O)O [ML-IAP34],1 µM,–
CSCC[C@H](NC(=O)CN)C(=O)NCC(=O)N[C@@H](CO)C(=O)N[C@@H](CCC(=O)O)C(=O)N[C@@H](CCC(=O)O)C(=O)N[C@@H](CC(C)C)C(=O)N[C@@H](CCCNC(=N)N)C(=O)N[C@@H](CC(C)C)C(=O)O [ML-IAP83],30 µM,–
CC(C)C[C@H](NC(=O)[C@@H]1CCCN1C(=O)[C@H](Cc1c[nH]c2ccccc12)NC(=O)[C@H](CC(=O)O)NC(=O)[C@H](Cc1ccc(O)cc1)NC(=O)[C@H](Cc1ccccc1)NC(=O)[C@H](CO)NC(=O)[C@H](C)NC(=O)[C@H](CC(C)C)NC(=O)[C@@H](N)CCCNC(=N)N)C(=O)O [ML-IAP90],0.2 µM,strength of spontaneous CTL response [1]: Weaker spontaneous responses; TIL samples in which a response against the peptide was detected [1]: seven; PBL samples in which a response against the peptide was detected [1]: two
CC(C)C[C@H](NC(=O)[C@H](CCC(=O)O)NC(=O)[C@@H]1CCCN1C(=O)[C@@H]1CCCN1C(=O)[C@@H](NC(=O)[C@H](CCC(=O)O)NC(=O)[C@H](C)NC(=O)[C@@H](NC(=O)[C@@H](N)CC(C)C)[C@@H](C)O)C(C)C)C(=O)O [ML-IAP99],0.9 µM,–
CC(C)C[C@H](NC(=O)[C@@H](N)C(C)C)C(=O)N[C@@H](CCC(=O)O)C(=O)N1CCC[C@H]1C(=O)N1CCC[C@H]1C(=O)NCC(=O)N[C@@H](C)C(=O)N[C@@H](CCCNC(=N)N)C(=O)N[C@@H](CC(=O)O)C(=O)N[C@H](C(=O)O)C(C)C [ML-IAP230],> 100 µM,strength of spontaneous CTL response [1]: Weaker spontaneous responses; TIL samples in which a response against the peptide was detected [1]: six; PBL samples in which a response against the peptide was detected [1]: two; C50 (μM) (HLA-A2): not able to stabilize the HLA-A2 molecule
ELPTPRREV [ML-IAP200],–,C50 (μM) (HLA-A2; listed as MLIAP200): did not bind
SIVFVPCG [ML-IAP261],–,C50 (μM) (HLA-A2; listed as MLIAP261): did not bind
